Data from publication PMC8371902, “Phase 1 study of M2698, a p70S6K/AKT dual inhibitor, in patients with advanced cancer” (Journal of Hematology & Oncology, 2021).
Entries after “also recorded” stand apart in the source; their conditions may differ.

Tested on: patients with advanced metastatic cancer
Description: In this phase 1 study, dose escalation was followed by expansion cohorts of once-daily, oral M2698 in continuous 21-day cycles. Primary objectives were to determine the maximum tolerated dose (MTD), dose-limiting toxicities (DLTs), and recommended phase 2 dose (RP2D). Secondary objectives were to assess safety and tolerability, pharmacokinetics (PK, including food effect) and antitumor activity. Pharmacodynamic biomarker assessments were exploratory. Treatment was discontinued if there was disease progression, toxicity or consent withdrawal.
In Part 1, M2698 monotherapy was investigated in a dose escalation with a food effect cohort. In Part 2, M2698 was investigated as monotherapy (expansion cohort) to further characterize safety, tolerability and pharmacokinetics, and assess antitumor activity in PAM + patients without confounding markers (exploratory).
Dose escalation analysis included all patients who experienced a DLT and those who received ≥ 80% of planned M2698 doses in cycle 1 without experiencing a DLT. Safety analysis included all patients who received ≥ 1 dose of M2698. PK analysis included all patients who received ≥ 1 dose of M2698 and had measurable plasma concentrations. Dose proportionality was tested using the power model (linear regression approach on the log -transformed scale).

SMILES: NC(=O)c1cccc2c(N[C@H](CN3CCC3)c3ccc(Cl)c(C(F)(F)F)c3)ncnc12 [M2698]
- M2698-related TEAE: Vomiting (Overall N=62): 2 (3.2) n (%)
- M2698-related TEAE: White blood cell count decreased (Overall N=62): 1 (1.6) n (%)
- Maximum tolerated dose (MTD) of M2698 (daily): no formal MTD was determined; also recorded: no MTD was reached
- Number of DLTs observed (dose escalation): two
- Grade >3 TEAE: GGT increased (in vivo): 4.8%
- Grade >3 TEAE: abdominal pain (in vivo): 3.2%
- Grade >3 TEAE: acute kidney injury (in vivo): 4.8%
- Grade >3 TEAE: acute respiratory failure (in vivo): 3.2%
- Grade >3 TEAE: anemia (in vivo): 9.7%
- Grade >3 TEAE: blood AP increased (in vivo): 3.2%
- Grade >3 TEAE: blood creatine phosphokinase increased (in vivo): 3.2%
- Grade >3 TEAE: cardiac arrest (in vivo): 3.2%
- Grade >3 TEAE: constipation (in vivo): 3.2%
- Grade >3 TEAE: disease progression (in vivo): 3.2%
- Grade >3 TEAE: hypertension (in vivo): 3.2%
- Grade >3 TEAE: hyponatremia (in vivo): 6.5%
- Grade >3 TEAE: nausea (in vivo): 3.2%
- Grade >3 TEAE: pleural effusion (in vivo): 3.2%
- Grade >3 TEAE: pneumonia (in vivo): 4.8%
- Grade >3 TEAE: septic shock (in vivo): 3.2%
- Grade >3 TEAE: small intestinal obstruction (in vivo): 3.2%
- Grade >3 TEAE: urinary tract infection (in vivo): 4.8%
- Grade >3 TEAE: vomiting (in vivo): 4.8%
- M2698-related TEAE abnormal dreams (in vivo): 9.7%
- M2698-related TEAE diarrhea (in vivo): 11.3%
- M2698-related TEAE fatigue (in vivo): 6.5%
- M2698-related TEAE nausea (in vivo): 19.4%
- M2698-related TEAE tremor (in vivo): 6.5%
- M2698-related TEAE: Abnormal dreams (in vivo): 6 (9.7) number of patients (percent)
- M2698-related TEAE: Diarrhea (in vivo): 7 (11.3) number of patients (percent)
- M2698-related TEAE: Fatigue (in vivo): 4 (6.5) number of patients (percent)
- M2698-related TEAE: Nausea (in vivo): 12 (19.4) number of patients (percent)
- M2698-related TEAE: Tremor (in vivo): 4 (6.5) number of patients (percent)
- M2698-related TEAEs: patients with ≥1 event (in vivo): 34 (54.8) number of patients (percent)
- Patients with M2698-related TEAEs (in vivo): 54.8%
- Patients with M2698-related TEAEs grade ≥ 3 (in vivo): 12.9%
- Serious TEAE related to M2698 (in vivo): 5 (8.1) number of patients (percent)
- Serious TEAEs (in vivo): 26 (41.9) number of patients (percent)
- Serious TEAEs attributed to M2698 (in vivo): 8.1 % of patients
- TEAE leading to permanent discontinuation of any trial treatment (in vivo): 6 (9.7%) number of patients (percent)
- TEAE leading to temporary discontinuation of M2698 (in vivo): 29 (46.8%) number of patients (percent)
- TEAE related to M2698 (in vivo): 34 (54.8%) number of patients (percent)
- TEAE related to M2698, grade ≥ 3 (in vivo): 8 (12.9%) number of patients (percent)
- TEAE: ALT increased (in vivo): 4 (6.5) n (%)
- TEAE: AST increased (in vivo): 2 (3.2) n (%)
- TEAE: Abdominal pain (in vivo): 5 (8.1) n (%)
- TEAE: Abnormal dreams (in vivo): 6 (9.7) n (%)
- TEAE: Anemia (in vivo): 13 (21.0) n (%)
- TEAE: Anxiety (in vivo): 6 (9.7) n (%)
- TEAE: Arthralgia (in vivo): 1 (1.6) n (%)
- TEAE: Asthenia (in vivo): 2 (3.2) n (%)
- TEAE: Back pain (in vivo): 2 (3.2) n (%)
- TEAE: Blood AP increased (in vivo): 4 (6.5) n (%)
- TEAE: Blood bilirubin increased (in vivo): 2 (3.2) n (%)
- TEAE: Blood creatinine increased (in vivo): 7 (11.3) n (%)
- TEAE: Chills (in vivo): 2 (3.2) n (%)
- TEAE: Constipation (in vivo): 14 (22.6) n (%)
- TEAE: Cough (in vivo): 11 (17.7) n (%)
- TEAE: Decreased appetite (in vivo): 9 (14.5) n (%)
- TEAE: Dehydration (in vivo): 7 (11.3) n (%)
- TEAE: Depression (in vivo): 3 (4.8) n (%)
- TEAE: Diarrhea (in vivo): 17 (27.4) n (%)
- TEAE: Disease progression (in vivo): 2 (3.2) n (%)
- TEAE: Dizziness (in vivo): 9 (14.5) n (%)
- TEAE: Dry mouth (in vivo): 3 (4.8) n (%)
- TEAE: Dry skin (in vivo): 0 (0) n (%)
- TEAE: Dyspnea (in vivo): 4 (6.5) n (%)
- TEAE: Edema peripheral (in vivo): 1 (1.6) n (%)
- TEAE: Fatigue (in vivo): 21 (33.9) n (%)
- TEAE: GGT increased (in vivo): 7 (11.3) n (%)
- TEAE: Gait disturbance (in vivo): 2 (3.2) n (%)
- TEAE: Headache (in vivo): 3 (4.8) n (%)
- TEAE: Hyperglycemia (in vivo): 1 (1.6) n (%)
- TEAE: Hypertension (in vivo): 4 (6.5) n (%)
- TEAE: Hypoalbuminemia (in vivo): 5 (8.1) n (%)
- TEAE: Hypocalcemia (in vivo): 4 (6.5) n (%)
- TEAE: Hypokalemia (in vivo): 4 (6.5) n (%)
- TEAE: Hypomagnesemia (in vivo): 2 (3.2) n (%)
- TEAE: Hyponatremia (in vivo): 5 (8.1) n (%)
- TEAE: Insomnia (in vivo): 2 (3.2) n (%)
- TEAE: Muscle spasms (in vivo): 0 (0) n (%)
- TEAE: Muscular weakness (in vivo): 1 (1.6) n (%)
- TEAE: Nasopharyngitis (in vivo): 1 (1.6) n (%)
- TEAE: Nausea (in vivo): 23 (37.1) n (%)
- TEAE: Neutropenia (in vivo): 1 (1.6) n (%)
- TEAE: Pain in extremity (in vivo): 3 (4.8) n (%)
- TEAE: Pyrexia (in vivo): 11 (17.7) n (%)
- TEAE: Rash (in vivo): 1 (1.6) n (%)
- TEAE: Tremor (in vivo): 5 (8.1) n (%)
- TEAE: Urinary tract infection (in vivo): 5 (8.1) n (%)
- TEAE: Vision blurred (in vivo): 3 (4.8) n (%)
- TEAE: Vomiting (in vivo): 12 (19.4) n (%)
- TEAE: Weight decrease (in vivo): 4 (6.5) n (%)
- TEAEs (in vivo): 61 (98.4%) number of patients (percent)
- TEAEs, grade ≥ 3 (in vivo): 36 (58.1%) number of patients (percent)
- TEAE leading to death (no deaths considered related to M2698, trastuzumab or tamoxifen): 6 (9.7) number of patients (percent)
- Recommended phase 2 dose (RP2D) of M2698 (once daily (QD)): 240 mg
- Psychiatric event attributed to M2698 (one patient, 320 mg, cycle 2): grade 3 psychosis
- Grade 2–3 gastrointestinal adverse events requiring dose reduction (patients with prolonged exposure to M2698 ≥ 320 mg): 19.4%
